Data: ChEMBL document CHEMBL1201862, “PubChem BioAssay data set” (2004)
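In this assay, cells in 96-well plates receive the compound at five concentrations for 48 hours. Endpoints are linearly interpolated between the surrounding concentrations. The concentration for 50% growth inhibition is given as GI50.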 Active and inactive are the calls of the source. Rule as the data show it: active = GI50 up to about 1.1 µM and inactive = higher.

Assays:
Experiment in all cases: NCI-60 cell line screen, 48 h
[1] = tested on: PC-3
[2] = tested on: HCT-116
[3] = tested on: CCRF-CEM
[4] = tested on: SK-MEL-28
[5] = tested on: DU-145
[6] = tested on: SR
[7] = tested on: SW-620
[8] = tested on: MDA-MB-435
[9] = tested on: OVCAR-5
[10] = tested on: UO-31
[11] = tested on: OVCAR-8
[12] = tested on: NCI/ADR-RES
[13] = tested on: HCT-15
[14] = tested on: NCI-H226
[15] = tested on: A549
[16] = tested on: SK-MEL-5
[17] = tested on: Hs-578T
[18] = tested on: SF-268
[19] = tested on: SNB-75
[20] = tested on: HOP-92

| SMILES | GI50 [1] | GI50 [2] | GI50 [3] | GI50 [4] | GI50 [5] | GI50 [6] | GI50 [7] | GI50 [8] | GI50 [9] | GI50 [10] | GI50 [11] | GI50 [12] | GI50 [13] [µM] | GI50 [14] | GI50 [15] | GI50 [16] | GI50 [17] | GI50 [18] | GI50 [19] | GI50 [20] |
| --- | --- | --- | --- | --- | --- | --- | --- | --- | --- | --- | --- | --- | --- | --- | --- | --- | --- | --- | --- | --- |
| N#CC(C#N)=CNC(=S)c1ccncc1 | > 100 µM (inactive) | 53.6 µM (inactive) | 34.5 µM (inactive) | > 100 µM (inactive) | > 100 µM (inactive) | 18.7 µM (inactive) | 64.9 µM (inactive) | > 100 µM (inactive) | > 100 µM (inactive) | 5.6 µM (inactive) | > 100 µM (inactive) | > 100 µM (inactive) | 37.4 | > 100 µM (inactive) | > 100 µM (inactive) | 48.4 µM (inactive) | 57.4 µM (inactive) | 61.1 µM (inactive) | 35.4 µM (inactive) |  |
| CC(=O)n1cc(OP(=O)(Oc2ccccc2)Oc2ccccc2)c2ccccc21 | 10.3 µM (inactive) | 21.4 µM (inactive) | 22.9 µM (inactive) | 29.3 µM (inactive) | 72.3 µM (inactive) | 10.9 µM (inactive) | 44.2 µM (inactive) | 17.9 µM (inactive) |  | 22.1 µM (inactive) | 39.7 µM (inactive) | 16.7 µM (inactive) | 29 | 27.7 µM (inactive) | 32.4 µM (inactive) | 19 µM (inactive) | 40.8 µM (inactive) | 19.7 µM (inactive) |  |  |
| COc1ccccc1NC(=S)N/N=C/c1c(C)n(C)n(-c2ccccc2)c1=O | > 100 µM (inactive) | > 100 µM (inactive) | > 100 µM (inactive) | > 100 µM (inactive) | 40.8 µM (inactive) | 51.6 µM (inactive) | 91.8 µM (inactive) | 34.6 µM (inactive) |  | > 100 µM (inactive) | 56.9 µM (inactive) | 21.1 µM (inactive) | 41.3 | 82.4 µM (inactive) |  | > 100 µM (inactive) | 37.8 µM (inactive) | 45.1 µM (inactive) | 49 µM (inactive) | 43.6 µM (inactive) |
| NC(CSCc1ccc(I)cc1)C(=O)O (stereo unspecified) | > 100 µM (inactive) | > 100 µM (inactive) | > 100 µM (inactive) | > 100 µM (inactive) | > 100 µM (inactive) |  | > 100 µM (inactive) | > 100 µM (inactive) | > 100 µM (inactive) | > 100 µM (inactive) | > 100 µM (inactive) | > 100 µM (inactive) | > 100 | > 100 µM (inactive) | > 100 µM (inactive) | > 100 µM (inactive) | 80.7 µM (inactive) | > 100 µM (inactive) | > 100 µM (inactive) | > 100 µM (inactive) |
| Cc1ccc(S(=O)(=O)N/N=C2\CC3C4C=CC3C2C4)cc1 (stereo unspecified) | > 100 µM (inactive) | > 100 µM (inactive) | > 100 µM (inactive) | > 100 µM (inactive) | > 100 µM (inactive) |  | > 100 µM (inactive) | > 100 µM (inactive) | > 100 µM (inactive) | 21 µM (inactive) | > 100 µM (inactive) | > 100 µM (inactive) | > 100 | > 100 µM (inactive) | > 100 µM (inactive) | > 100 µM (inactive) | > 100 µM (inactive) | > 100 µM (inactive) |  | > 100 µM (inactive) |
| COc1ccc(-n2c(C)nc3ccc(NC4OC(CO)C(O)C(O)C4O)cc3c2=O)cc1 (stereo unspecified) | > 100 µM (inactive) | > 100 µM (inactive) |  | > 100 µM (inactive) | > 100 µM (inactive) | > 100 µM (inactive) | > 100 µM (inactive) | > 100 µM (inactive) | > 100 µM (inactive) | > 100 µM (inactive) | > 100 µM (inactive) | > 100 µM (inactive) | > 100 | > 100 µM (inactive) |  | > 100 µM (inactive) | > 100 µM (inactive) | > 100 µM (inactive) | > 100 µM (inactive) |  |
| O=C(/C=C/c1ccc(OCc2ccccc2)cc1)NCc1ccc(C(=O)NCCc2ccccc2)cc1 | > 100 µM (inactive) | > 100 µM (inactive) | 11.4 µM (inactive) | > 100 µM (inactive) | > 100 µM (inactive) |  | > 100 µM (inactive) | > 100 µM (inactive) | > 100 µM (inactive) | > 100 µM (inactive) | > 100 µM (inactive) | > 100 µM (inactive) | > 100 | > 100 µM (inactive) | > 100 µM (inactive) | > 100 µM (inactive) | > 100 µM (inactive) | > 100 µM (inactive) | > 100 µM (inactive) | > 100 µM (inactive) |
| CCOC(=O)C1CCC(=O)N1C(=O)c1ccccc1 (stereo unspecified) | > 100 µM (inactive) | > 100 µM (inactive) | > 100 µM (inactive) | > 100 µM (inactive) | > 100 µM (inactive) | > 100 µM (inactive) | > 100 µM (inactive) | > 100 µM (inactive) | > 100 µM (inactive) | > 100 µM (inactive) | > 100 µM (inactive) | > 100 µM (inactive) | > 100 | > 100 µM (inactive) | > 100 µM (inactive) | > 100 µM (inactive) | > 100 µM (inactive) | > 100 µM (inactive) |  | > 100 µM (inactive) |
